Among the data in ChEMBL document CHEMBL5576045, “M1/M4 receptors as potential therapeutic treatments for schizophrenia: A comprehensive study” (Bioorg Med Chem, 2024) are fold change (FC) values, retold here.

For this test, the target named is T1, Muscarinic acetylcholine receptor M4 (Homo sapiens) (UniProt P08173).
T1 sequence (whole entry): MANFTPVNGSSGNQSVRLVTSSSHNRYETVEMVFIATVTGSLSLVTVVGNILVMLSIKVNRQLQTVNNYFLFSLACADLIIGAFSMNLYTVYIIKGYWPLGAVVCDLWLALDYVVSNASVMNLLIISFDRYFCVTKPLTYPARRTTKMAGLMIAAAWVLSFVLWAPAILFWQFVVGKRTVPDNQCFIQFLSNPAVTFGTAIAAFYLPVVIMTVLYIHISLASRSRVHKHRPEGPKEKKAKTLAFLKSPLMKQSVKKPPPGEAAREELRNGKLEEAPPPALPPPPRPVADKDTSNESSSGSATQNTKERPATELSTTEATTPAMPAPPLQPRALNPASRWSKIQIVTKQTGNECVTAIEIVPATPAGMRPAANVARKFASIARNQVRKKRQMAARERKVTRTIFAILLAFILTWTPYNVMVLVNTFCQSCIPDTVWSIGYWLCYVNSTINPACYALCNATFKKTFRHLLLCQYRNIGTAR
The test can be described thus: Binding affinity to M4 receptor (unknown origin) assessed as fold change in presence of acetylcholine.

Turning to `CC1=C(CCO)SC2=Nc3nc(C)ncc3CN21`, the fold change (FC) was found to be 3.
